{"source": "patent US20200390755A1", "about": "“COMPOUND FOR TREATING NERVOUS SYSTEM DISEASES AND USE THEREOF” (SHAANXI MICOT TECHNOLOGY CO., LTD., priority 2018, published 2020)", "key": {"[1]": {"tested_on": "WT mice", "assay": "Slope balance beam experiment, WT mice", "format": "in vivo, mouse", "details": "5 mg/kg/d intragastric", "procedure": "(§1) 7-week-old N171-82Q HD male mice were paired with female B6C3F1/J hybrid mice to obtain newborn mice. From 21 days of age, male mice were housed in separate cages. 0.5 cm of mouse tail tissue was removed to extract DNA to determine the genotype of the mouse, such that N171-82Q HD mice and WT mice needed for the experiment were obtained. The mice were randomly divided into WT Vehicle group (normal mice), WT test compound group (administration group of normal mice, 5 mg/kg/d, n=10), HD Vehicle group (blank group of HD mice, n=15), HD test compound group (administration groups 1-5 of HD mice, 5 mg/kg/d, n=10). The test compound was suspended in 1% CMC-Na solution and administered by intragastric administration until the end of the study. The weights of the mice were measured every week. Behavioral tests were performed at 12 weeks, 18 weeks, and 24 weeks of age to investigate motor function. At 20 weeks, 3 samples of tissue from each group were used for western blotting and immunohistochemistry. At 24 weeks, MRI scans were performed. At the end of the study, the effect of the test compound on the mortality of mice was evaluated. The software Sigmaplot 13.0 was used for statistical analysis of the data, and the data of each group was expressed as mean standard error (x±SEM). Behavioral test results were analyzed using two-way (genotype and processing factor) ANOVA and post-ho tests, the comparison and statistics of weight data were performed using two-way (genotype and age) ANOVA of repeated measures, and mortality was counted using Kaplan-Meier method. Other measurement data were analyzed by one-way ANOVA. P<0.05 was considered statistically significant. The motor function of mice was evaluated by the rotarod experiment and three types of balance beam experiments. The shorter the time for mouse to cross the balance beam, and the longer the time to drop, the stronger the coordination ability of the mouse. […] If the time for crossing the beams was greater than 60 seconds, it was recorded as 60 seconds."}, "[2]": {"tested_on": "WT mice", "assay": "High-altitude balance beam (5 mm) experiment 2, WT mice", "format": "in vivo, mouse", "details": "5 mg/kg/d intragastric", "procedure": "as §1, with “experiments.” for “experiments. The shorter the time for mouse to cross the balance beam, and the longer the time to drop, the stronger the coordination ability of the mouse.”, “seconds. a square balance beam with a length of 80 cm and a width of 5 mm was place at a height of about 50 cm from the ground. […]” for “seconds.”"}}, "data": [{"smiles": "O=c1cc(-c2ccc(N3CCCCC3)cc2)oc2c(O)c(O)ccc12", "note": "[Example 1, 7,8-dihydroxy-2-(4-(piperidin-1-yl)phenyl)-4H-chromen-4-one]", "values": [{"measurement": "Time for crossing the beams, slope balance beam", "setting": "[1]; 12 w", "result": "18.82 ± 28.33", "unit": "s"}, {"measurement": "Time for crossing the beams, slope balance beam", "setting": "[1]; 18 w", "result": "12.45 ± 6.23", "unit": "s"}, {"measurement": "Time for crossing the beams, slope balance beam", "setting": "[1]; 24 w", "result": "15.50 ± 6.11", "unit": "s"}, {"measurement": "Time for crossing the beams, high-altitude balance beam (5 mm)", "setting": "[2]; 12 w", "result": "11.64 ± 4.20", "unit": "s"}, {"measurement": "Time for crossing the beams, high-altitude balance beam (5 mm)", "setting": "[2]; 18 w", "result": "9.91 ± 3.05", "unit": "s"}, {"measurement": "Time for crossing the beams, high-altitude balance beam (5 mm)", "setting": "[2]; 24 w", "result": "14.18 ± 7.07", "unit": "s"}]}]}
